Laboratory results: PMC7413254 (Nature Communications, 2020)
Where two headings read alike, the source gives them in different places.

Experiments:
[1] = system: non-expressing oocytes; assay: cells; format: cell-based, Xenopus laevis; conditions: Xenopus laevis, total [3H]CQ transport; for inhibition at 500 µM: [test solute] = 0.5 mM; for inhibition at 1000 µM: [test solute] = 1 mM; for inhibition at 2000 µM: [test solute] = 2 mM
Procedure, shortened: (§1)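 Transport runs from the acidic bath into the cytosol, analogous to PfCRT-mediated efflux out of the vacuole. Non-expressing oocytes act as background.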

[2] = target: T1, PfCRT^3D7 (Plasmodium falciparum, UniProt Q8IBZ9); assay: cell-based; format: cell-based; conditions: total [3H]CQ transport; for inhibition at 500 µM: [test solute] = 0.5 mM; for inhibition at 1000 µM: [test solute] = 1 mM; for inhibition at 2000 µM: [test solute] = 2 mM
T1 sequence (Q8IBZ9 59-398): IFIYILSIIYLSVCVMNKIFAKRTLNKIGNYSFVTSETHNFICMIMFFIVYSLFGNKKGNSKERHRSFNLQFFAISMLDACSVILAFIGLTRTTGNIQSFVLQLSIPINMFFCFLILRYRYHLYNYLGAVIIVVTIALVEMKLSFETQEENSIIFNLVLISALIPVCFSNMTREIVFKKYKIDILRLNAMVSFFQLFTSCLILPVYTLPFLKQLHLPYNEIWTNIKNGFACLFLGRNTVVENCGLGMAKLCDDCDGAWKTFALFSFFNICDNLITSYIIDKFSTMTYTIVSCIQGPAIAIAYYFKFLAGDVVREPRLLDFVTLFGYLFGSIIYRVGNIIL
Procedure, shortened: as §1

[3] = target: T2, PfCRT^Dd2 (Plasmodium falciparum, UniProt Q9N623, A220S/I356T/K76T/M74I/N326S/N75E/Q271E/R371I); assay: [3H]CQ uptake into Xenopus oocytes, cis-inhibition by unlabelled solute; format: cell-based
T2 sequence (Q9N623 whole entry A220S/I356T/K76T/M74I/N326S/N75E/Q271E/R371I): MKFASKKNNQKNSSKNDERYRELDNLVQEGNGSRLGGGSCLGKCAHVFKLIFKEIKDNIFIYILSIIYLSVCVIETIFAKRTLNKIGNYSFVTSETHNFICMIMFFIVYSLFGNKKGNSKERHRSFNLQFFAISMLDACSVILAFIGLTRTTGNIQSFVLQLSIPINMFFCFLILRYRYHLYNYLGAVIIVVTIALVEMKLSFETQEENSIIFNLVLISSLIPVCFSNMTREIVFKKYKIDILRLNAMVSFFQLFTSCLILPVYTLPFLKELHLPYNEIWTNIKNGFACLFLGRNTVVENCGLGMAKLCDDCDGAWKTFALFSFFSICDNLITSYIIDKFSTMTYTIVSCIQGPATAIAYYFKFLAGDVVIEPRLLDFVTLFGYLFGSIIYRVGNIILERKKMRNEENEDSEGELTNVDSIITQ
Procedure, shortened: as §1

[4] = target: T3, PfCRT^Ecu1110 (Plasmodium falciparum, UniProt Q9N623, A220S/I356L/K76T/N326D); assay: as above; format: cell-based
T3 sequence (Q9N623 whole entry A220S/I356L/K76T/N326D): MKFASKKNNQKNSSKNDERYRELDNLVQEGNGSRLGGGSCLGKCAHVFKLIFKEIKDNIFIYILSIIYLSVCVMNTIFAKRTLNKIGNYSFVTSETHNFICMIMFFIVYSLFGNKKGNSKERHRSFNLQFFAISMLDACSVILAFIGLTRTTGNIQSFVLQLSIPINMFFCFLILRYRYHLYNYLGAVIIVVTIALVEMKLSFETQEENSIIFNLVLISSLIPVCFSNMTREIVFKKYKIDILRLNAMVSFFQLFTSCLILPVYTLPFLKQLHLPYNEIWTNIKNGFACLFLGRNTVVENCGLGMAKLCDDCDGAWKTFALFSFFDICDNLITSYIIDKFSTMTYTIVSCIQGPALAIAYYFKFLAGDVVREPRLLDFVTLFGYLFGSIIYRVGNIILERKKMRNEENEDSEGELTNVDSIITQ
Procedure, shortened: as §1

[5] = system: non-expressing oocytes; format: cell-based, Xenopus laevis; conditions: total [3H]CQ transport; for Uptake of [3H]CQ (% non-expressing oocyte control), trans-stimulation: non-expressing oocytes, normalised to the oocyte type control; for Uptake of [3H]CQ (% PfCRTDd2 control), trans-stimulation, non-expressing oocytes: mean ± SEM, SEM
Procedure, shortened: (§2)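 Oocytes (ten per treatment, ≥4 independent frogs/days) were preloaded by injecting VF-6 in 25 nL ND96 at pH 5.0, 5.5, 6.0 or 7.0, or Na^+-free choline buffer, then uptake run 1.5 h, 27.5 °C, ND96 pH 5.5 by default. Internal concentrations assumed ~400 nL oocyte volume.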

[6] = target: T1, PfCRT^3D7; assay: cell-based; format: cell-based
Procedure, shortened: as §2

[7] = target: T2, PfCRT^Dd2; assay: cell-based; format: cell-based; conditions: […]; for activity at 45000 µM: [test solute]i = 45 mM (30 mM for some solutes due to solubility)
Procedure, shortened: as §2

[8] = target: T3, PfCRT^Ecu1110; assay: cell-based; format: cell-based; conditions: […]
Procedure, shortened: as §2

[9] = target: T4, PfNT1 (Plasmodium falciparum, UniProt Q8IDM6); assay: cell-based; format: cell-based; conditions: for activity at 5000 µM: total [3H]CQ transport
T4 construct: expressed in transfected cells; host or cells: Xenopus laevis oocytes (stage V-VI), cRNA-injected
T4 sequence (Q8IDM6 whole entry): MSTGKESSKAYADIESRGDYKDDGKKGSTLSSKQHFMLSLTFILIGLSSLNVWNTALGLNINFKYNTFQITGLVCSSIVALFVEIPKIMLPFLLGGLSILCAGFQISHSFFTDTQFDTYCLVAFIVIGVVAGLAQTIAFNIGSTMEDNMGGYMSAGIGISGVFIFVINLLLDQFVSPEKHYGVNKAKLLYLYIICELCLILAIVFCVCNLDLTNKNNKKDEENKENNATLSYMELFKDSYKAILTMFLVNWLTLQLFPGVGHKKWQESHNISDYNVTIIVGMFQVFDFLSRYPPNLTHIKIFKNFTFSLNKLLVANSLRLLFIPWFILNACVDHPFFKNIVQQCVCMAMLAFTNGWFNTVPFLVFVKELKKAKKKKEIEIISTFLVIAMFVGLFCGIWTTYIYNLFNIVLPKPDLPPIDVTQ
Procedure, shortened: as §2

[10] = system: PfCRT; assay: Test of solutes as potential co-substrates for influx of VF-6 via PfCRT into the oocyte; format: cell-based, Plasmodium falciparum; set-up: key: X: Compounds that have been tested as potential co-substrates but are not required for influx of VF-6 via PfCRT into the oocyte; conditions: X = tested
[11] = system: PfCRT; assay: Potential co-substrates tested for influx of VF-6 via PfCRT into the oocyte; format: cell-based, Plasmodium falciparum; set-up: key: X: Compounds that have been tested as potential co-substrates but are not required for influx of VF-6 via PfCRT into the oocyte
[12] = Oocyte, mean ± SEM, SEM, read-out: Uptake of [3H]CQ (% PfCRTDd2 control), cis-inhibition, non-expressing oocytes
[13] = non-expressing oocytes, normalised to the oocyte type control, read-out: Uptake of [3H]CQ (% non-expressing oocyte control), cis-inhibition
[14] = PfCRT3D7 oocytes, normalised to the oocyte type control, read-out: Uptake of [3H]CQ (% PfCRT3D7 control), cis-inhibition
[15] = mean ± SEM, SEM, read-out: Uptake of [3H]CQ (% PfCRTDd2 control), cis-inhibition, PfCRT3D7
[16] = read-out: PfCRT-mediated [3H]CQ transport, cis-inhibition (% PfCRTDd2 control)
[17] = read-out: Uptake of [3H]CQ (% PfCRTDd2 control), cis-inhibition
[18] = read-out: Uptake of [3H]CQ (% PfCRTDd2 control), cis-inhibition, PfCRTDd2, SEM
[19] = read-out: [3H]CQ transport (% PfCRTDd2 control), cis-inhibition, PfCRTDd2, SEM
[20] = read-out: PfCRT-mediated [3H]CQ transport, cis-inhibition (% PfCRTEcu1110 control)
[21] = read-out: Uptake of [3H]CQ (% PfCRTDd2 control), cis-inhibition, PfCRTEcu1110, SEM
[22] = read-out: Uptake of [3H]CQ (% PfCRTEcu1110 control), cis-inhibition
[23] = read-out: [3H]CQ transport (% PfCRTEcu1110 control), cis-inhibition, PfCRTEcu1110, SEM

For N[C@@H](Cc1c[nH]c2ccccc12)C(=O)O [L-tryptophan], the inhibition at 500 µM [1, 12] was 2.1 ± 0.07%, the inhibition at 1000 µM [1, 12] was 3.4 ± 0.1% and the inhibition at 2000 µM [1, 12] was 3.6 ± 0.09%. The inhibition at 500 µM [1, 13] was 97 ± 3.2%, the inhibition at 1000 µM [1, 13] was 100 ± 3.6% and the inhibition at 2000 µM [1, 13] was 100 ± 6.3%. For the same molecule, the inhibition at 500 µM [2, 14] was 100 ± 3.2%, the inhibition at 1000 µM [2, 14] was 99 ± 4.6% and the inhibition at 2000 µM [2, 14] was 100 ± 3.6%. For the same molecule, the inhibition at 500 µM [2, 15] was 2.7 ± 0.03%, the inhibition at 1000 µM [2, 15] was 2.5 ± 0.04% and the inhibition at 2000 µM [2, 15] was 2.7 ± 0.04%. For the same molecule, the inhibition at 500 µM [3, 16] was 94 ± 4.6%, the inhibition at 1000 µM [3, 16] was 95 ± 1.9% and the inhibition at 2000 µM [3, 16] was 95 ± 1.9%. For the same molecule, the inhibition at 1000 µM [3, 17] was 97 ± 2.6%, the inhibition at 2000 µM [3, 17] was 97 ± 2.5% and the inhibition at 500 µM [3, 18] was 96 ± 2.1%. It also gave an inhibition at 1000 µM [3, 18] of 97 ± 2.6%, an inhibition at 2000 µM [3, 18] of 97 ± 2.5% and an inhibition at 1000 µM [3, 19] of 95 ± 1.9%. It also gave an inhibition at 2000 µM [3, 19] of 95 ± 1.9%, an inhibition at 500 µM [4, 20] of 96 ± 3.7% and an inhibition at 1000 µM [4, 20] of 95 ± 4.6%. The inhibition at 500 µM [4, 21] was 32 ± 1.6%, the inhibition at 1000 µM [4, 21] was 32 ± 0.6% and the inhibition at 2000 µM [4, 21] was 33 ± 1.4%. For the same molecule, the inhibition at 500 µM [4, 22] was 98 ± 2.5%, the inhibition at 1000 µM [4, 22] was 97 ± 2.7% and the inhibition at 2000 µM [4, 22] was 101 ± 3.1%. For the same molecule, the inhibition at 500 µM [4, 23] was 29 ± 1.3%, the inhibition at 1000 µM [4, 23] was 29 ± 0.3% and the inhibition at 2000 µM [4, 23] was 30 ± 1.4%. For the same molecule, the “Uptake of [3H]CQ (% non-expressing oocyte control), trans-stimulation” value ([5]; [test solute]i = 5 mM) was 98 ± 2.5 % non-expressing oocyte control, the “Uptake of [3H]CQ (% non-expressing oocyte control), trans-stimulation” value ([5]; [test solute]i = 45 mM (30 mM for some solutes due to solubility)) was 99 ± 2.1 % non-expressing oocyte control and the “Uptake of [3H]CQ (% PfCRTDd2 control), trans-stimulation, non-expressing oocytes” value ([5]; [test solute]i = 5 mM (intracellular)) was 3.0 ± 0.04 % PfCRTDd2 control. For the same molecule, the “Uptake of [3H]CQ (% PfCRTDd2 control), trans-stimulation, non-expressing oocytes” value ([5]; [test solute]i = 45 mM (intracellular; 30 mM for some solutes due to solubility)) was 3.2 ± 0.01 % PfCRTDd2 control, the activity at 5000 µM ([6]; PfCRT3D7 oocytes, [test solute]i = 5 mM, total [3H]CQ transport, normalised to the oocyte type control, read-out: Uptake of [3H]CQ (% PfCRT3D7 control), trans-stimulation) was 100 ± 3.5% and the “[3H]CQ transport (% PfCRT3D7 control), trans-stimulation, PfCRT3D7” value ([6]; SEM) was 0.3 ± 0.02 % PfCRT3D7 control. The activity at 5000 µM ([6]; [test solute]i = 5 mM (intracellular), PfCRT3D7 oocytes, normalised to oocyte type control, read-out: PfCRT-mediated [3H]CQ transport, trans-stimulation (% PfCRT3D7 control)) was 98 ± 4.7%, the activity at 45000 µM ([6]; SEM, read-out: Uptake of [3H]CQ (% PfCRTDd2 control), trans-stimulation, PfCRT3D7) was 3.4 ± 0.06% and the activity at 45000 µM ([6]; read-out: PfCRT-mediated [3H]CQ transport, trans-stimulation (% PfCRT3D7 control)) was 99 ± 3.4%. For the same molecule, the activity at 45000 µM ([6]; read-out: Uptake of [3H]CQ (% PfCRT3D7 control), trans-stimulation) was 101 ± 2.5%, the activity at 5000 µM ([6]; total [3H]CQ transport, [test solute]i = 5 mM (intracellular), mean ± SEM, SEM, read-out: Uptake of [3H]CQ (% PfCRTDd2 control), trans-stimulation, PfCRT3D7) was 3.3 ± 0.06% and the activity at 5000 µM ([7]; pH 5.5, read-out: PfCRT-mediated [3H]CQ transport, trans-stimulation (% PfCRTDd2 control), [test solute]i = 5 mM (intracellular), PfCRTDd2 oocytes, normalised to oocyte type control) was 98 ± 1.6%. For the same molecule, the activity at 5000 µM ([7]; pH 5.5, read-out: Uptake of [3H]CQ (% PfCRTDd2 control), trans-stimulation, PfCRTDd2, total [3H]CQ transport, [test solute]i = 5 mM (intracellular), mean ± SEM, SEM) was 100 ± 2.2%, the activity at 5000 µM ([7]; pH 5.5, read-out: Uptake of [3H]CQ (% PfCRTDd2 control), trans-stimulation, PfCRTDd2 oocytes, [test solute]i = 5 mM, total [3H]CQ transport, normalised to the oocyte type control) was 100 ± 2.2% and the activity at 45000 µM ([7]; pH 5.5, read-out: Uptake of [3H]CQ (% PfCRTDd2 control), trans-stimulation, PfCRTDd2 oocytes, total [3H]CQ transport, normalised to the oocyte type control) was 101 ± 2.4%. It also gave an activity at 5000 µM ([7]; pH 5.5, read-out: [3H]CQ transport (% PfCRTDd2 control), trans-stimulation, PfCRTDd2, trans-stimulation, [test solute]i = 5 mM (injected), PfCRT-mediated component (background subtracted), mean ± SEM, SEM) of 98 ± 1.6%, an activity at 45000 µM ([7]; pH 5.5, read-out: [3H]CQ transport (% PfCRTDd2 control), trans-stimulation, PfCRTDd2, trans-stimulation, PfCRT-mediated component (background subtracted), mean ± SEM, SEM) of 99 ± 1.9% and an activity at 5000 µM ([8]; pH 5.5, read-out: PfCRT-mediated [3H]CQ transport, trans-stimulation (% PfCRTEcu1110 control), [test solute]i = 5 mM (intracellular), PfCRTEcu1110 oocytes, normalised to oocyte type control) of 97 ± 2.2%. For the same molecule, the activity at 5000 µM ([8]; pH 5.5, read-out: Uptake of [3H]CQ (% PfCRTEcu1110 control), trans-stimulation, PfCRTEcu1110 oocytes, [test solute]i = 5 mM, total [3H]CQ transport, normalised to the oocyte type control) was 99 ± 3.1%, the activity at 45000 µM ([8]; pH 5.5, read-out: Uptake of [3H]CQ (% PfCRTEcu1110 control), trans-stimulation, PfCRTEcu1110 oocytes, [test solute]i = 45 mM (30 mM for some solutes due to solubility), total [3H]CQ transport, normalised to the oocyte type control) was 99 ± 3.5% and the activity at 5000 µM ([8]; read-out: Uptake of [3H]CQ (% PfCRTDd2 control), trans-stimulation, PfCRTEcu1110, total [3H]CQ transport, [test solute]i = 5 mM (intracellular), mean ± SEM, SEM) was 35 ± 1.9%. For the same molecule, the activity at 45000 µM ([8]; read-out: Uptake of [3H]CQ (% PfCRTDd2 control), trans-stimulation, PfCRTEcu1110, total [3H]CQ transport, [test solute]i = 45 mM (intracellular; 30 mM for some solutes due to solubility), mean ± SEM, SEM) was 35 ± 2.1%, the activity at 5000 µM ([9]; PfNT1 oocytes, [test solute]i = 5 mM, normalised to the oocyte type control, read-out: Uptake of [3H]CQ (% PfNT1 control), trans-stimulation) was 101 ± 3.9% and the activity at 45000 µM ([9]; SEM, read-out: Uptake of [3H]CQ (% PfCRTDd2 control), trans-stimulation, PfNT1) was 2.1 ± 0.03%. The activity at 45000 µM ([9]; read-out: Uptake of [3H]CQ (% PfNT1 control), trans-stimulation) was 98 ± 3.2%, the activity at 5000 µM ([9]; [test solute]i = 5 mM (intracellular), mean ± SEM, SEM, read-out: Uptake of [3H]CQ (% PfCRTDd2 control), trans-stimulation, PfNT1) was 2.7 ± 0.05% and the “Tested as potential co-substrate but not required for influx of VF-6 via PfCRT into the oocyte” value [10] was “X”. The “Tested as potential co-substrate but not required for influx of VF-6 via PfCRT into the oocyte” value [11] was “X”.
